Results: US10676474B2, “1,6-naphthyridine derivatives as CDK4/6 inhibitor” (CSTONE PHARMACEUTICALS, priority 2016, dated 2020)
Values after ≈ are worked out from the molar mass of the structure shown. Where two headings read alike, the source gives them in different places.

Legend:
physchem = conditions: phosphate buffer, pH 7.4, aqueous buffer, kinetic from dmso stock
[1] = Thermodynamic solubility test (shake-flask, HPLC); type: physicochemical; conditions: phosphate buffer, aqueous buffer, thermodynamic from solid; QC samples, pH 7.4; read-out: Thermodynamic solubility pH 7.4
Protocol: The thermodynamic solubility of the compounds was determined by the shake-flask method and HPLC. The solubility of the compounds is an important property that affects drug screening of compounds and the absorption of compounds in animals and humans. A saturated solution of the compound was first given and quantitatively tested by HPLC to obtain the solubility of the compound.
50 mM phosphate buffer solution, pH 7.4.
Not less than 2 mg of the sample powder was weighed into a vial of Whatman miniuniprep. If test of the thermodynamic solubility of a sample in multiple buffer solutions is required, an individual vial is required for each test.
450 μL of the buffer solution (pH 7.4) was added to each Whatman miniuniprep vial.
After the addition of the buffer solution, the Whatman miniuniprep cap with a filter was mounted and pressed above the liquid level so that the filter could contact with the buffer solution during shaking.
And the observation of the solution was recorded.
It was shaked at 550 RPM for 24 hours at room temperature (about 22 to 25° C.).
The Whatman Miniunipreps filter cap was pressed to the bottom to give the filtrate of the sample solubility solution. All sample vials should be filtered before and after insoluble substances and their leakage.
The buffer was diluted 50 folds to give a sample diluent.
Three UV standards from low to high concentration were injected into HPLC, followed by the injection of the dilutions and supernatants of the tested compounds. The tested sample was injected twice.

[2] = test system: LU-01-0393 lung cancer patient-derived tumor tissue xenograft (PDX); test: In vivo pharmacodynamic study (1), LU-01-0393 PDX; parameters: species or system BALB/c nude mice; conditions: 60 mg/kg orally daily
Protocol: The in vivo pharmacodynamic experiments were performed on the BALB/c nude mice implanted subcutaneously with the LU-01-0393 lung cancer patient-derived tumor tissue xenograft (PDX).
BALB/c nude mice, female, 6-8 weeks, weighing approximately 17-21 g, were placed in a single ventilated cage (5 mice per cage) under a special pathogen free environment. All of the cages, beddings and water were disinfected before use. All of the animals were permitted free access to a standard certified commercial laboratory diet. A total of 36 mice purchased from Vital River Laboratory Animal Co., LTD, Beijing were used for the study. Each mouse was implanted subcutaneously with a tumor LU-01-0393 FP4 section (20-30 mm^3) in the right back for tumor growth. The dosing initiated when the average tumor volume reached about 150-200 mm^3. The tumor volume was measured twice a week using a two-dimensional caliper, and the volume was measured in mm^3, calculated by the following the formula: V=0.5 a×b^2, wherein, a and b were the long and short diameters of the tumor, respectively. The antitumor efficacy was determined by dividing the average increase in the tumor volume of the animals treated with the compound by the average increase in the tumor volume of the untreated animals.

[3] = test system: non-small cell lung cancer NCI-H358 model; test: In vivo pharmacodynamic study (2), NCI-H358 model, tumor volume; parameters: species or system BALB/c nude mice; conditions: 60 mg/kg orally daily, Table 6-1
Protocol: (§1) The in vivo pharmacodynamic experiments were performed on the BALB/c nude mice implanted subcutaneously with the non-small cell lung cancer NCI-H358 model.
(§2) All of the cages, beddings and water were disinfected before use. All of the animals were permitted free access to a standard certified commercial laboratory diet. A total of 86 mice purchased from Vital River Laboratory Animal Co., LTD, Beijing were used for the study. The animal information of the experiments in Example 34 was as follows: BALB/c nude mice, female, 6-8 weeks, weighing approximately 16-18 g, were placed in a single ventilated cage (4 mice per cage) under a special pathogen free environment. All of the cages, beddings and water were disinfected before use. All of the animals were permitted free access to a standard certified commercial laboratory diet. A total of 56 mice purchased from Shanghai Lingchang Biotechnology Co., Ltd. were used for the study.
(§3) Each mouse was implanted subcutaneously with NCI-H358 tumor cells in the right back for tumor growth. The dosing initiated when the average tumor volume reached about 100-200 mm^3. […] The tumor volume was measured twice a week using a two-dimensional caliper, and the volume was measured in mm^3, calculated by the following the formula: V=0.5 a×b^2, wherein, a and b were the long and short diameters of the tumor, respectively. The antitumor efficacy was determined by dividing the average increase in the tumor volume of the animals treated with the compound by the average increase in the tumor volume of the untreated animals, and the safety of the compound was determined by the change in the body weight of the animal treated with the compound.
TGI: Tumor Growth Inhibition.

CDK4/cyclin D1 = target: T1, CDK4/cyclin D1 (Homo sapiens, UniProt P11802); test: Enzyme activity assay CDK4/cyclin D1 (Lance Ultra); type: biochemical; conditions: 0.3 nM CDK4/cyclin D1, 350 μM ATP, 180 minutes
T1 construct: purchased Life technology
Protocol: (§4) CDK4/cyclin D1, CDK6/cyclin D1 (Life technology). ULight labeled polypeptide substrates ULight-4E-BP1 and ULight-MBP (PerkinElmer). Europium labeled anti-myelin basic protein antibody and europium labeled rabbit-derived antibody (PerkinElmer). Envision Multi-label Analyzer (PerkinElmer) for signal detection.
(§5) They were respectively dissolved in an enzyme buffer solution comprising: 50 mM hydroxyethylpiperazine ethanesulfuric acid solution at pH 7.5, 1 mM ethylenediaminetetraacetic acid, 10 mM magnesium chloride, 0.01% Brij-35, 2 mM dithiothreitol. After the reaction was begun, the OptiPlate 384-well plate was sealed with a top heat seal film TopSeal-A, and incubated at room temperature for 180 minutes.
(§6) The termination buffer solution of the enzymatic reaction was prepared, and EDTA was dissolved in a 1-fold diluted assay buffer solution. The reaction was terminated and incubated at room temperature for 5 minutes. 5 μL of the assay mixed solution (prepared with europium labeled anti-myelin basic protein antibody and europium labeled rabbit-derived antibody, respectively) was added to the reactions of CDK4/cyclin D1 and CDK6/cyclin D1, respectively, and incubated at room temperature for 60 minutes. The reaction signal was detected by Envision according to the time-resolved fluorescence resonance energy transfer theory.

[4] = Two-way permeability evaluation assay of Caco-2 cells; conditions: human, Caco-2, pH 7.4
Caco-2 cells [5] = test: as above; conditions: Caco-2
CDK6/cyclin D1 = target: T2, CDK6/cyclin D1 (Homo sapiens, UniProt Q00534); test: Enzyme activity assay CDK6/cyclin D1 (Lance Ultra); type: biochemical; conditions: 0.8 nM CDK6/cyclin D1, 250 μM ATP, 180 minutes
T2 construct: purchased Life technology
Protocol: as §4
as §5, with “started,” for “begun,”, “TopSeal-A” for “TopSeal-A,”
as §6

[6] = In vivo pharmacodynamic study (2), NCI-H358 model, animal weight; parameters: species or system BALB/c nude mice; conditions: 60 mg/kg orally daily
Protocol: as §1, §2, §3

NCI-H358 cells = test: Cell viability assay NCI-H358 (CellTiter-Glo); type: cell-based; conditions: Homo sapiens, 168 h; NCI-H358, incubated for 7 days
Protocol: The NCI-H358 cell line is from the cell bank of the Department of Biology of WuXi Apptec Co. Ltd. Envision Multi-Label Analyzer (PerkinElmer).
1) 100 μL of phosphate buffer solution was added to the peripheral wells of the 384-well plate and 40 μL of NCI-H358 cell suspension was added to the other wells containing 250 NCI-H358 cells. The cell plate was then placed in a carbon dioxide incubator and incubated overnight.
2) A 3-fold gradient dilution was subjected to the tested compounds using Echo. Each compound was diluted by 10 concentration gradients (diluted from 25 μM to 1.27 nM), 100 nL of which was added to the corresponding wells of the cell plate. The cell plate was then placed in a carbon dioxide incubator and incubated for 7 days.
3) 20 μL of Promega CellTiter-Glo reagent was added to each well of the cell plate, and shaken for 10 minutes away from light at room temperature to stabilize the luminescence signal. Readings were performed using a PerkinElmer Envision Multi-label Analyzer.
Table 1 provides the inhibitory activity of the compounds of the present invention against the proliferation of H358 cells.

[7] = Metabolic stability in mouse liver microsomes; type: in vitro ADME; conditions: 0.5 mg/mL protein, read-out: Mice T1/2
Protocol: (§7) This assay is used to test the metabolic stability of tested substances in rats, mice and human liver microsomes.
(§8) 1) The tested compound with concentration of 1 μM was co-incubated with liver microsomes with a protein concentration of 0.5 mg/mL under a reducing coenzyme II regeneration system in a 37° C. water bath.
(§9) 2) The positive controls include: testosterone (3A4 substrate), propafenene (2D6 substrate) and diclofenac (2C9 substrate). The incubation condition of the positive controls was consistent with that of the compound.
(§10) 3) The reaction time points were: 0, 5, 10, 20, 30 and 60 minutes, and the reaction is terminated at the corresponding time point using a termination solution containing an internal standard. The compounds were also incubated with microsomes for 60 minutes without a reducing coenzyme II regeneration system and served as a negative control.
(§11) 4) Each time point was a single point (n=1).
(§12) 5) The sample was determined by LC/MS/MS, and the compound concentration was shown as the ratio of the peak area of the compound to the peak area of the internal standard (non-standard).
(§13) 6) In the project report summary, the half-life and the clearance rate would be calculated.

Caco-2 cells [8] = test system: Caco-2 cells
[9] = Metabolic stability in rat liver microsomes; type: in vitro ADME; conditions: 0.5 mg/mL protein, read-out: Rats T1/2
Protocol: as §7, §8, §9, §10, §11, §12, §13

[10] = Metabolic stability in human liver microsomes; type: in vitro ADME; conditions: 0.5 mg/mL protein, read-out: Human T1/2
Protocol: as §7, §8, §9, §10, §11, §12, §13

T1 sequence (P11802 whole entry): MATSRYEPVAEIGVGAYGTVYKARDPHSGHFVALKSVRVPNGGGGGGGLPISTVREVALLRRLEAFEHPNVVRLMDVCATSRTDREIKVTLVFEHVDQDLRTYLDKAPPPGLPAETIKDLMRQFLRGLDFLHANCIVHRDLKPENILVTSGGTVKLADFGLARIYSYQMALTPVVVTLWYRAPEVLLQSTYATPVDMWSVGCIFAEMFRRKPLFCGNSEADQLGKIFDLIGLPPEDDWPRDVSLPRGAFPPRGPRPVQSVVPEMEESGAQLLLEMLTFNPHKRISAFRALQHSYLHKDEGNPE
T1 sequence (P24385 whole entry partner): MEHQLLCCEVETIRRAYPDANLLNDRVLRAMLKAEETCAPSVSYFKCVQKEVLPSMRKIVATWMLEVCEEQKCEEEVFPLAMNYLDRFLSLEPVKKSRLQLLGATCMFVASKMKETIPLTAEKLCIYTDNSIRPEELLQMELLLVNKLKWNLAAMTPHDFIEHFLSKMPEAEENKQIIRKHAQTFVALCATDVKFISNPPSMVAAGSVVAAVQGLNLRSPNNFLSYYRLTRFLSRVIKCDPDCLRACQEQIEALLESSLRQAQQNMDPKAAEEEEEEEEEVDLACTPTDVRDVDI
T2 sequence (Q00534 whole entry): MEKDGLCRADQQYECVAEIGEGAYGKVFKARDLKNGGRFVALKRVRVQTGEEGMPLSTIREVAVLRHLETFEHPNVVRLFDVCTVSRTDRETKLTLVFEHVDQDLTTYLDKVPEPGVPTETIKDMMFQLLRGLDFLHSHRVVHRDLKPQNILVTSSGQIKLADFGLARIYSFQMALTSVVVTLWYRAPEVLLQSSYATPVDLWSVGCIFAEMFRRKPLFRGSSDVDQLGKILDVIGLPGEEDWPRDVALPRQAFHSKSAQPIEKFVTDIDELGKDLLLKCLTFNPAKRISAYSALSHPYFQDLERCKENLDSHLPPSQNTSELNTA
T2 sequence (P24385 whole entry partner): as the sequence (P24385 whole entry partner) above

SMILES: NC(=O)N1c2ccccc2C=Cc2ccccc21 [Carbamazepine, reference compound]
- solubility kinetic at 24 h (physchem): 180 ± 15 µM (≈ 42.5 µg/mL)
- solubility thermodynamic at 24 h [1]: 450 ± 60 µM (≈ 106 µg/mL)

SMILES: CC(=O)c1c(C)c2cnc(Nc3cnc(N4CCNCC4)cn3)cc2n(C2CCCC2)c1=O [Example 1, 3-acetyl-1-cyclopentyl-4-methyl-7-[(5-piperazin-1-ylpyrazin-2-yl)amino]-1,6-naphthyridin-2-one]
- Gross tumor volume Day 0 ([2]; Day 0): 144 mm^3
- Gross tumor volume Day 7 ([2]; Day 7): 132 mm^3
- Gross tumor volume Day 14 ([2]; Day 14): 182 mm^3
- Gross tumor volume Day 20 ([2]; Day 20): 212 mm^3

SMILES: CC(=O)c1c(C)c2cnc(Nc3cnc(N4CCN(C(C)C)CC4)cn3)cc2n(C2CCCC2)c1=O [Example 3]
- Gross tumor volume, 0 day [3]: 152 mm^3
- Gross tumor volume, 7 days [3]: 141 mm^3
- Gross tumor volume, 14 days [3]: 159 mm^3
- Gross tumor volume, 17 days [3]: 136 mm^3
- solubility kinetic at 24 h (physchem): 171 µM (≈ 83.7 µg/mL)
- IC50 (CDK4/cyclin D1): 6.1 nM
- Papp A→B at 2 h, 2 μM [4]: 10.9 ×10⁻⁶ cm/s
- Papp B→A at 2 h, 2 μM [4]: 12.4 ×10⁻⁶ cm/s
- efflux ratio at 2 h, 2 μM [4]: 1.14
- Category Efflux transporter substrate (Caco-2 cells [5]): Less
- Category Permeability (Caco-2 cells [5]): High
- IC50 (CDK6/cyclin D1): 2.9 nM
- Changes in animal weight, 0 days [6]: 0.0%
- Changes in animal weight, 7 days [6]: −1.0%
- Changes in animal weight, 14 days [6]: 0.5%
- Changes in animal weight, 17 days [6]: 0.8%
- IC50 (NCI-H358 cells): 176 nM

SMILES: CC(=O)c1c(C)c2cnc(Nc3cnc(N4CCN[C@@H](C)C4)cn3)cc2n(C2CCCC2)c1=O [Example 9, 3-acetyl-1-cyclopentyl-4-methyl-7-[[5-[(3S)-3-methylpiperazin-1-yl]pyrazin-2-yl]amino]-1,6-naphthyridin-2-one]
- IC50 (CDK4/cyclin D1): 9.1 nM
- IC50 (CDK6/cyclin D1): 3.4 nM
- IC50 (NCI-H358 cells): 196 nM

SMILES: CC(=O)c1c(C)c2cnc(Nc3cnc(N4CCN(C(C)C)[C@@H](C)C4)cn3)cc2n(C2CCCC2)c1=O [Example 11]
- IC50 (CDK4/cyclin D1): 5.6 nM
- IC50 (CDK6/cyclin D1): 3.1 nM
- IC50 (NCI-H358 cells): 278 nM

SMILES: CC(=O)c1c(C)c2cnc(Nc3cnc(N4CCN(C)C(C)(C)C4)cn3)cc2n(C2CCCC2)c1=O [Example 14]
- IC50 (CDK4/cyclin D1): 7.1 nM
- IC50 (CDK6/cyclin D1): 2.4 nM
- IC50 (NCI-H358 cells): 197 nM

SMILES: CC(=O)c1c(C)c2cnc(Nc3cnc(N4CCN(C(C)C)C(C)(C)C4)cn3)cc2n(C2CCCC2)c1=O [Example 15]
- IC50 (CDK4/cyclin D1): 5.7 nM
- IC50 (CDK6/cyclin D1): 3.1 nM
- IC50 (NCI-H358 cells): 262 nM

SMILES: CC(=O)c1c(C)c2cnc(Nc3cnc(N4CC5CCC(C4)N5C)cn3)cc2n(C2CCCC2)c1=O [Example 19]
- IC50 (CDK4/cyclin D1): 7 nM
- IC50 (CDK6/cyclin D1): 3.7 nM
- IC50 (NCI-H358 cells): 214 nM

SMILES: CC(=O)c1c(C)c2cnc(Nc3cnc(C4CCNCC4)cn3)cc2n(C2CCCC2)c1=O [Example 28]
- IC50 (CDK4/cyclin D1): 8.3 nM
- IC50 (CDK6/cyclin D1): 3.5 nM
- IC50 (NCI-H358 cells): 295 nM

SMILES: CC(=O)c1c(C)c2cnc(Nc3cnc(N4CCN(CCO)CC4)cn3)cc2n(C2CCCC2)c1=O [Example 33]
- IC50 (CDK4/cyclin D1): 8.62 nM
- IC50 (CDK6/cyclin D1): 4.66 nM
- IC50 (NCI-H358 cells): 153 nM

SMILES: CC(=O)c1c(C)c2cnc(Nc3cnc(N4CCN(CCN)CC4)cn3)cc2n(C2CCCC2)c1=O [Example 35]
- IC50 (CDK4/cyclin D1): 5.06 nM
- IC50 (CDK6/cyclin D1): 2.97 nM
- IC50 (NCI-H358 cells): 189 nM

SMILES: CCN1CCN(Cc2ccc(Nc3ncc(F)c(-c4cc(F)c5nc(C)n(C(C)C)c5c4)n3)nc2)CC1 [LY2835219, Abemaciclib]
- half-life at 1 μM [7]: 2.36 min
- Gross tumor volume, 0 day [3]: 152 mm^3
- Gross tumor volume, 7 days [3]: 97 mm^3
- Gross tumor volume, 14 days [3]: 73 mm^3
- Gross tumor volume, 17 days [3]: 60 mm^3
- Category Efflux transporter substrate (Caco-2 cells [8]): Possible
- half-life at 1 μM [9]: 6.34 min
- Category Permeability (Caco-2 cells [5]): Medium
- half-life at 1 μM [10]: 2.69 min
- Changes in animal weight, 0 days [6]: 0.0%
- Changes in animal weight, 7 days [6]: −2.9%
- Changes in animal weight, 14 days [6]: −3.5%
- Changes in animal weight, 17 days [6]: −3.5%
